Measured values: patent US20120141432A1, “USE OF CATALYTIC ANTIOXIDANT TO PRESERVE STEM CELL PHENOTYPE AND CONTROL CELL DIFFERENTIATION” (University of Pittsburgh- Of the Commonwealth System of …, priority 2010, published 2012)
Entries after “also recorded” stand apart in the source; their conditions may differ.

Assays:
Format in all cases: cell-based
[1] = system: muscle stem cells; assay: Myogenic differentiation of muscle stem cells (% of nuclei within myosin positive myotubes)
Description: (§1) FIGS. 2A and 2B are a set of bar graphs showing the effect of the catalytic antioxidant FBC-007 on the differentiation of muscle stem cells. The effect of FBC-007 at a concentration of 34 μM was measured on the myogenic differentiation of muscle stem cells. Differentiation was determined as the % of nuclei located within myosin positive myotubes and multinucleated myotubes.
In vitro Myogenic Differentiation: Cell populations from 3 different time points (<5 PDs, midpoint PDs, and maximal expansion) are evaluated. Briefly cells are plated at high density of 2000 cells/cm^2 in a low serum medium. After 3-4 days in culture, the media is changed to low serum or 2% serum medium. After day 7, immunocytochemical staining is performed to reveal fast myosin heavy chain (MyHC) expression. Methanol-fixed cultures are blocked with 5% HS and incubated with monoclonal mouse anti-MyHC (Sigma, 1:250, Sigma), biotinylated IgG (1:250, Vector), and streptavidin-Cy3 (1:500). […] In vitro differentiation efficiency is calculated as the ratio of myogenic nuclei to total nuclei.

[2] = system: muscle stem cells; assay: Division time, cell growth and proliferation of muscle stem cells
Description: as §1
In Vitro Live Cell Imaging (LCI) to study Quiescent Nondividing cells. In vitro LCI is used to measure the fraction or proportion which is quiescent and nondividing after cytokine stimulation. The LCI system is unique in providing time-lapse images to characterize the cell populations. Using CytoTracker, DataCollector, and informatics tools, the growth rates of the populations are determined as described previously (Deasy et al., Stem Cells 20, 50-60 (2002)). In this way subpopulations or individual cells can be quantified. The combined the cell growth counts and the data of cell division time is used to calculate the size of the non-dividing fraction via a non-exponential Sherley equation (Sherley et al., Cell Prolif. 28, 137-44 (1995)).

[3] = system: stem cells; assay: Rescue from hydrogen peroxide-induced cell death
From the text: In other words, contacting stem cells with catalytic antioxidants allows the stem cells to proliferate (e.g. increase their numbers) without differentiating and losing the characteristics of stem cells, such as the phenotypic characteristics that distinguish stem cells from other cells. […] Thus, as disclosed herein contacting stem cells with catalytic antioxidants permits in vitro expansion of stem cells while delaying or inhibiting the differentiation of the stem cells, as well as protecting the stem cells from oxidative stress induced cell death.

[4] = system: human umbilical cord mesenchymal stem cells; assay: Osteogenic differentiation of umbilical cord mesenchymal stem cells (ALP staining); conditions: 34 μM, BMP4 0, 0.1 or 10 ng/mL, vs control with no antioxidant, FIG. 3
Description: The cells were contacted with the catalytic antioxidant at a concentration of 34 μM and bone morphogenic protein (BMP4) at concentrations of 0, 0.1, or 10 ng/mL.
Umbilical cord mesenchymal stem cells (UC-MSCs) were isolated and cultured. Cells were plated in the presence and absence of catalytic antioxidant. Live cell time-lapsed imaging was used to examine proliferation and apoptosis; images were analyzed using custom software obtained from Kairos Instruments. Osteogenic differentiation was stimulated using previously described methods; Alkaline Phosphatase (ALP) staining was used to determine stem cell differentiation (see Schugar et al., J Biomed Biotechnol 2009, 789526 (2009)). Cell phenotype was examined by flow cytometry (Schugar et al., J Biomed Biotechnol 2009, 789526 (2009)). Levels of intracellular reactive oxygen species were examined using dihydroxyrhodamine 123.

[5] = system: human skMSC; assay: Growth factor dose response of human skMSC by time-lapsed imaging; conditions: for number of muscle stem cells: after 3 days in 100 ng/mL, vs lower doses and unstimulated controls; for response of human skMSC to growth factor: time-lapsed imaging
[6] = system: muscle stem cells; assay: ROS in muscle stem cells grown with FGF-2; conditions: cells grown with FGF-2 vs absence of FGF-2, FIG. 5C
From the text: FIGS. 5A-5D are bar graphs, a plot and an electronic image showing that oxidative stress decreases cell viability (FIG. 5A) and myogenic differentiation capacity (FIG. 5B). […] FIG. 5D is an electronic image of muscle cells showing that myosin (staining) declines as ROS increases.

[7] = system: human skMSC; assay: BrdU pulse detection of nondividing cells; conditions: 3 days exposure, BrdU pulse 36 hours, P=0.01
Description: Nondividing cells were also detected within the human muscle cell population in the context of GF-dose-dependent studies. […] The cells were pulsed with BrdU for 36 hours (division time=19±4 hrs) immunostaining was performed to detect labeled and unlabeled cells.

[8] = system: muscle stem cells; assay: Growth rate of muscle cells after CFSE labeling; conditions: 0 μM, 1 μM or 5 μM CFSE, FIG. 7B
Description: Cells were stained at 1.0 μM, and then analyzed at 0, 2, and 5 days. Note that the low fluorescence intensity approaches that of unstained cells by day 5. FIG. 7D is a plot of sample lineage trees showing the presence of dividing and non-dividing cells. FIG. 7E is a set of plots showing that 24 hours after injection into mdx mice, CFSE-labeled cells are detectable.
Both time-lapsed imaging and FACS sorting were applied to the quiescent population using used cytoplasmic tracking dyes, used 5-6-carboxyfluorescein diacetate, succinimdyl ester, CFSE, and a similar molecule, CMFDA. Once cell permeable CFDA-SE is taken up by cells, intracellular esterases in the cytoplasm cleave acetate groups and convert CFDA to fluorescent CFSE. It was first confirmed that CFSE is impermeable; it was not taken in by unlabeled neighboring cells when CFSE-positive cells die (FIG. 7A). An approach was developed to use CFSE as an effective method for labeling of muscle cells.

[9] = stem cell cultures, muscle stem cell and mesenchymal stem cells

## CC[n+]1ccccc1-c1c2nc(c(-c3cccc[n+]3CC)c3ccc([n-]3)c(-c3cccc[n+]3CC)c3nc(c(-c4cccc[n+]4CC)c4ccc1[n-]4)C=C3)C=C2.[Mn+3] [FBC-007, Mn(III)tetrakis(N-ethylpyridinium-2-yl)porphyrin]
[1]; FBC-007 34 μM vs controls without antioxidant, FIG. 2A
  myogenic differentiation (% of nuclei located within myosin positive myotubes and multinucleated myotubes): reduced levels of differentiation relative to controls
[1]; absence of growth factor (GF) stimulation, FIG. 6C
  uninduced myogenic differentiation: prevents uninduced myogenic differentiation
[1]; [9]
  myogenic differentiation in stem cell cultures: inhibits the myogenic differentiation
[2]; FBC-007 34 μM, FIG. 2B
  division time of the muscle stem cells: does not show a statistically significant change
[2]; FIGS. 6A and 6B
  cell growth: did not affect cell growth; also recorded: does not affect cell growth
[2]; [9]
  proliferation of the stem cells: without affecting the proliferation
[3]
  hydrogen peroxide-induced cell death: can rescue the stem cells
[4]
  osteogenic differentiation: reduced osteogenic differentiation

## FGF-2: FGF-2 (basic fibroblast growth factor, bFGF)
[5]
  number of muscle stem cells: significantly more muscle stem cells
  response of human skMSC to growth factor: dose-dependent response
[6]
  reactive oxygen species (ROS): increase in some muscle stem cells

## IGF-1: Insulin-like growth factor 1
[5]
  number of muscle stem cells: significantly more muscle stem cells
  response of human skMSC to growth factor: dose-dependent response
[7]
  nondividing cells (BrdU [−]): significantly fewer nondividing cells

## carboxyfluorescein diacetate succinimidyl ester [CFSE]
[8]
  growth rates after CFSE treatment: does not affect growth rates
